The term mortality denotes the percentage killed.

Like-named read-outs stand apart in the source and are kept apart here.

This is an account of results in patent EP0306160A2, “Molluscicides” (BRITISH TECHNOLOGY GROUP LIMITED, priority 1987, dated 1989).

What all share (format): in vivo
Series [1] deals with slugs. The series is described as follows: Field comparison of baits (grass/clover), Table VII. As to conditions: first 4 days of trial; bait 10 % ai, 2.5 % sucrose (PP pellets 6 % ai, Draza pellets 4 % ai). From the text:
In Table VII there is presented a comparison of the efficacy of present iron and aluminium chelates with metaldehyde and methiocarb under field conditions (grass/clover).

Series [2] has as its system grey field slugs, Deroceras reticulatum. As to the kind of experiment: Contact with coated glass plate. As to conditions: for LC₅₀ On glass (50 min)., Mean: mean of all tests. As for the experimental part:
(§1) All laboratory tests were made with field-collected grey field slugs, Deroceras reticulatum (Pulmonata, Limacidae) and also with Arion hortensis in the weight range 0.4-0.6g. They were held in polythene bowls on wet filter paper in a controlled environment cabinet cycling 12 hours light at 15°C and 12 hours dark at 5°C. Voluntary feeding tests were made under these conditions but all other laboratory bioassays were carried out at 10°C constant temperature with an overnight pre-treatment period also at 10°C.
Groups of ten slugs were placed foot-down on sheets of glass, 10 cm x 10 cm, previously coated with an aqueous solution of suspension of test chemical and air dried to leave a deposit of known weight per unit area. Slugs were confined to a treated area for a period of 50 minutes at 10°C on plates with increasing surface loadings, then removed and held in wet filter paper-floored petri dishes with food. The number of dead slugs after seven days was recorded and the values used to calculate median lethal surface concentrations ('LC₅₀') for each compound by probit analysis.

The test system is the same in series [3]. As to the kind of experiment: Contact with treated soil surface. The conditions noted are these: mean of all tests. How it is done:
as §1
Groups of ten slugs were held in plastic seed trays, 20 x 34 cm x 5 cm deep, filled to a depth of 1 cm with standard soil, a sandy clay loam from Rothamsted Farm, with a pH in water of 5.2, previously oven-dried, sieved (2 mm mesh), and rewetted to field capacity in the trays. Test chemicals were mixed with 5g dry soil, ground together and sprinkled on to the wet soil surface. Slugs were confined to the treated surface by a 16 v pulsed DC electric fence attached to the tray sides. Trays were covered to maintain a high Relative Humidity and food was provided. Dead slugs were removed daily and the final mortality count made after 10 days.

For series [4] the test system is unchanged. As to the kind of experiment: Stomach poison action, voluntary feeding (wheatmeal bait). As for the experimental part: as §1
Test chemicals were offered to slugs at a range of concentrations in a wheat-meal based formulation, groups of ten slugs being confined in 15 cm crystallising dishes containing only wet filter paper and a solid watch glass filled with 3 g (dry weight) of test bait for four 24-hour cycles […]

Series [5] has as its system slugs. The series is described as follows: Laboratory test, standard baits containing 1% metal ion, no alternative food (Example 17). The conditions noted are these: 3 replicates of 10 slugs; standard bait containing 1% metal ion. How it is done:
as §1
Laboratory tests where 3 replicates of 10 slugs were confined with standard baits containing 1% metal ion in different compounds, and no alternative food supplied, gave the following results: Aluminium sulphate (Al₂(SO₄)₃): 0/10, 0/10, 0/10 killed Aluminium acetylacetonate: 10/10, 10/10, 10/10 killed (Ex 17)

In a further series the test system is Deroceras reticulatum. The series is described as follows: Bait bioassay with increasing concentrations in standard bait (Examples 19-35). The conditions noted are these: for Kill: 4 days. As for the experimental part:
Test compounds were incorporated into a standard wheat-flour-based edible carrier containing 10% paraffin wax binder and 2.5% sucrose phagostimulant, in increasing concentrations 0, 1, 4, 7, 10, 13 and 16% a.i.
Groups of ten field-collected D. reticulatum in the weight range 400-600 mg were confined with 0.5 g DM test bait at each concentration for a period of 4 days under a regime of 12 h dark @ 5°C and 12 light @ 15°C. Weight of bait eaten and number of slugs killed were recorded. Each group of compounds was tested against a concurrently run Al(ac.ac)₃ standard bait.
In Examples 23 to 35, where six groups of ten slugs are offered bait containing 1,4,7,10,13 or 16% a.i., have been reduced to two values, (i), the total amount of a.i. ingested (mg) which gives an indication of the palatability of the compound, and (ii), the total number of slugs killed (x/60) which, with (i), gives an indication of its relative toxicity.

With `CNC(=O)Oc1cc(C)c(SC)c(C)c1` [Methiocarb], in the series with slugs [1], the “Total Slugs 'Dead' or 'Immobilised' (Cumulative) Total D+I” value worked out at 557.

For `CC(=O)C=C(C)[O][Al]([O]C(C)=CC(C)=O)[O]C(C)=CC(C)=O` [Example 19, Tris (2,4-pentanedionato) Al III], in series [2] (individual tests, 50 min contact at 10°C, dead after seven days, bracketed values estimated, listed as Al^III acetylacetonate), the “LC₅₀ On glass (50 min).” value is reported as “(10-100)(Example 1) µg metal cm²”. Also, in series [2], the “LC₅₀ On glass (50 min)., Mean” value is “(< 100) µg metal cm²”. Moreover, the “LC₅₀ On soil (10 days), Mean” value in series [3] is given as 34.1 µg metal/cm². Also, the mortality at 0.01 % in series [4] (Deroceras reticulatum, po, 168 h, 0.01 % Al in wheatmeal bait, read-out: Mortality after 7 days) worked out at 10%. For the same compound, the mortality at 0.03 % in series [4] (Deroceras reticulatum, po, 168 h, 0.03 % Al in wheatmeal bait, read-out: Mortality after 7 days) was 10%. Besides, the mortality at 0.1 % worked out at 20% in series [4] (Deroceras reticulatum, po, 168 h, 0.1 % Al in wheatmeal bait, read-out: Mortality after 7 days) and 40% in series [4] (Deroceras reticulatum, po, 216 h, 0.1 % Metal in wheatmeal bait (Table III), read-out: Mortality after 9 days). Also, in series [4] (Deroceras reticulatum, po, 168 h, 0.3 % Al in wheatmeal bait, read-out: Mortality after 7 days), the mortality at 0.3 % was 40%. Besides, the mortality at 1 % in series [4] (Deroceras reticulatum, po, 168 h, 1.0 % Al in wheatmeal bait, read-out: Mortality after 7 days) amounted to 100%; in series [4] (Deroceras reticulatum, po, 216 h, 1.0 % Metal in wheatmeal bait (Table III), read-out: Mortality after 9 days), 80%; in series [4] (Deroceras reticulatum, po, at 1 per cent Aluminium content, non-choice test (Table II), read-out: mortality) it was 100%. The mortality at 3 % in series [4] (Deroceras reticulatum, po, 168 h, 3.0 % Al in wheatmeal bait, read-out: Mortality after 7 days) is 100%. In addition, the mortality at 0.5 % in series [4] (Deroceras reticulatum, po, 216 h, 0.5 % Metal in wheatmeal bait (Table III), read-out: Mortality after 9 days) was determined as 80%. In addition, in series [4] (Deroceras reticulatum, po, 216 h, 5.0 % Metal in wheatmeal bait (Table III), read-out: Mortality after 9 days), the mortality at 5 % stood at 80%. The mortality at 10 % in series [4] (Deroceras reticulatum, po, 216 h, 10.0 % Metal in wheatmeal bait (Table III), read-out: Mortality after 9 days) was 80%. In addition, the killed in the series with slugs [5] is listed as 10/10. The Kill is on record as 0 x/10 in the series on Deroceras reticulatum (1 % a.i. in standard bait); 0 x/10 with Deroceras reticulatum (4 % a.i. in standard bait); 6 x/10 with Deroceras reticulatum (7 % a.i. in standard bait); 7 x/10 with Deroceras reticulatum (10 % a.i. in standard bait); 8 x/10 in the series with Deroceras reticulatum (13 % a.i. in standard bait); 8 x/10 with Deroceras reticulatum (16 % a.i. in standard bait).

Turning to Aluminium sulphate [reference compound], the “LC₅₀ values on glass” value in series [2] is “around 20 µg metal cm⁻²”. Also, the “LC₅₀ On glass (50 min)., Mean” value in series [2] worked out at 20.9 µg metal cm⁻². For the same compound, the “LC₅₀ On soil (10 days), Mean” value in series [3] is reported as 207.4 µg metal/cm². The “Mortality after 7 days” value was determined as 1 x/10 in series [4] (0.01 % Al in wheatmeal bait); 2 x/10 in series [4] (0.03 % Al in wheatmeal bait); 3 x/10 in series [4] (0.1 % Al in wheatmeal bait); 3 x/10 in series [4] (0.3 % Al in wheatmeal bait); 5 x/10 in series [4] (1.0 % Al in wheatmeal bait); 2 x/10 in series [4] (3.0 % Al in wheatmeal bait). In addition, the killed in the series with slugs [5] was 0/10.

In the series on Deroceras reticulatum (total over six groups of ten slugs offered bait containing 1,4,7,10,13 or 16% a.i.), “Tris (1-dimethoxy-2, 4-pentanedionato) Al III [Example 29]” registered a Slugs dead of 14 x/10.

In the case of `CCC(=O)C=C(CC)[O][Al]([O]C(=CC(=O)CC)CC)[O]C(=CC(=O)CC)CC` [Example 21, Tris (3,5-heptanedionato) Al III], the Kill in the series with Deroceras reticulatum (1 % a.i. in standard bait) stood at 1 x/10; with Deroceras reticulatum (4 % a.i. in standard bait) it was 3 x/10; with Deroceras reticulatum (7 % a.i. in standard bait), 0 x/10; with Deroceras reticulatum (10 % a.i. in standard bait), 1 x/10; in the series on Deroceras reticulatum (13 % a.i. in standard bait) it was 1 x/10; with Deroceras reticulatum (16 % a.i. in standard bait), 2 x/10.

As to `CCC(=O)C=C(C)[O][Al]([O]C(C)=CC(=O)CC)[O]C(C)=CC(=O)CC` [Example 20, Tris (2,4-hexanedionato) Al III], the Kill with Deroceras reticulatum (1 % a.i. in standard bait) was 1 x/10; in the series with Deroceras reticulatum (4 % a.i. in standard bait) it was 0 x/10; with Deroceras reticulatum (7 % a.i. in standard bait), 4 x/10; in the series on Deroceras reticulatum (10 % a.i. in standard bait), 1 x/10; with Deroceras reticulatum (13 % a.i. in standard bait), 5 x/10; in the series with Deroceras reticulatum (16 % a.i. in standard bait) it was 5 x/10.

For `CC1OC(C)OC(C)OC(C)O1` (centres unmarked) [Metaldehyde], the “Total Slugs 'Dead' or 'Immobilised' (Cumulative) Total D+I” value in the series on slugs [1] was 461.
